According to patent US10988481B2, “Potent and selective mu opioid receptor modulators” (VIRGINIA COMMONWEALTH UNIVERSITY, priority 2016, dated 2021):
Read-outs that look alike come from different tables or passages of the source.

Assays:
KOR = KOR (Homo sapiens (Human), UniProt P41145); test: Competition binding assay at KOR ([3H]DPN, CHO cell membranes)
Method: (§1) Chinese hamster ovary (CHO) cells expressing MOR, KOR and DOR were cultured for use in this assay. The culture media used for MOR CHO cells contained 500 mL DMEM/F12 media, 10% FBS, 1% penicillin/streptomycin, and 2.75 mL G418. The DOR and KOR CHO cells were cultured in the same media except that 5% FBS was used instead of 10%. The cells are allowed to grow until they are 80-95% confluent after which they are split. The cells are continuously cultured and split until there were sufficient cells for the studies.
(§2) Once the cells reached confluence, cells were harvested, centrifuged at 1000×g for 10 minutes, and suspended in membrane buffer (50 mM Tris, 3 mM MgCl2, and 1 mM EGTA, pH 7.4). The cells were then homogenized, centrifuged at 50000×g for 10 minutes, and re-homogenized in membrane buffer. A Bradford assay was conducted to determine membrane protein concentrations, and membrane protein preps (3 μg/aliquot) were stored at −80° C.
(§3) The competition binding assay was conducted to determine the affinity and selectivity of the synthesized compounds to MOR over KOR and DOR. The Kd and Bmax values for [^3H]NLX at MOR and [^3H]DPN at KOR had been determined previously. […] [^3H]NLX was used to label MOR whilst [^3H]DPN was used to label both DOR and KOR. The potency of the new compounds in displacing the specific binding of the radioligand was determined by linear regression analysis of Hill plots. […] The IC50 values were determined and converted to Ki values using the Cheng—Prusoff equation (Rosenblum, A. et al. Exp Clin Psychopharmacol. 2008, 16 (5), 405-416).

DOR [1] = molecular target: T1, DOR (Homo sapiens (Human), UniProt P41143); test: Competition binding assay at DOR ([3H]DPN, CHO cell membranes)
Method: as §1, §2, §3

Swiss Webster mice [2] = test: Warm-water tail immersion assay, antinociceptive (agonist) effect; assay type: in vivo; conditions: 10 mg/kg s.c., tail flick 20 min after injection, 56 °C
Method: (§4) FIG. 1A-D. Warm-water tail immersion assay in mice (n=5) at 56±0.1° C. All tested compounds were administered subcutaneously (s.c.). […] Compounds (10 mg/kg) were injected at Time 0. Twenty minutes after injection, tail flick was assessed with hot water. […] Tested compounds (10 mg/kg) were injected at Time 0. Five minutes later, morphine (10 mg/kg) was administered. Twenty minutes after morphine injection, tail flick was tested using hot water.
(§5) For the in vivo studies, male Swiss Webster mice were used for both the warm-water immersion and opioid withdrawal assays. The mice weighed 23-35 g and were housed five to a cage in animal care quarters maintained at 22° C. on a 12 hour light-dark cycle with food and water available ad libitum. The mice were transferred to the test room and the tests were then conducted 18 hours later. Protocols and procedures were approved by the Institutional Animal Care and Use Committee at Virginia Commonwealth University Medical Center and complied with the recommendations of the International Association for the Study of Pain.
Each indole analogue of naltrexamine was tested for its ability to produce antinociception and/or to antagonize the antinociceptive effects of morphine in mice using the warm-water tail immersion assay described by Coderre and Rollman. The a water bath temperature was maintained at 56±0.1° C. The baseline latency (control) was determined before injecting the compounds into the mice. […] To test for agonism, the tail immersion was conducted 20 min (time that morphine effect starts to peak) after injecting the indole analogues of 6α/β-naltrexamine. To prevent tissue damage, a 10 s maximum cut off time was imposed. Antinociceptive response was calculated as the percentage maximum possible effect (% MPE), where % MPE=[(test−control)/(10−control)]×100. […] The tail immersion test was conducted 20 min after giving morphine. % MPE was calculated for each mouse using at least five mice per drug. AD50 values were calculated using the least-squares linear regression analysis followed by calculation of 95% confidence interval by Bliss method. […]

MOR [3] = molecular target: MOR (Mus musculus, UniProt P42866); assay type: biochemical; conditions: relative to 3 μM DAMGO at MOR
Method: The [^35S]GTPγS functional assay was used to determine whether the synthesized compounds are agonists. The agonist's activity of the compounds was measured relative to 3 μM DAMGO at MOR. In this assay, upon receptor activation due to agonist binding, [^35S]GTPγS binds to the Gα subunit. Thus, [^35S]GTPγS replaces endogenous GTP and since the γ-thiophosphate bond is resistant to hydrolysis by GTPase, [^35S]GTPγS labelled Gα subunits accumulate and can be quantified by measuring the amount of incorporated [^35S].
The Bradford assay was then conducted to determine the concentration of the membrane protein using BSA as the standard. Suitable dilutions of membrane protein, [^35S]GTPγS), cold GTPγS, DAMGO and GDP were made in TME. The desired amount of the protein per tube was 10 μg. All the test-tubes were vortexed and incubated in the shaking water bath at 30° C. for 90 minutes, after which bound radioligand was filtered and rinsed three times with cold Tris buffer. The filtered bound radioligand was then transferred into scintillation tubes with 4 mL of scintillation fluid and radioligand was quantified. However, counting was delayed for 9 hrs to allow the radioactivity to enter the solution. Percent DAMGO stimulation was defined as (net stimulated binding of test compound/net stimulated binding of DAMGO)×100%. The normalized data were subjected to nonlinear regression analysis to determine EC50 and Emax values using Prism 6.0 software (GraphPad Software, San Diego, Calif.). The assay was performed in triplicate and repeated at least three times.

morphine-pelleted mice = test: Opioid withdrawal assay in chronic morphine-exposed (pelleted) mice; conditions: for Diarrhea: 1 mg/kg, morphine pelleted mice (not in placebo pelleted mice)
Method: as §5
A 75 mg morphine pellet was implanted in to the base of the neck of the mice and the mice were then given time to recover in their home cages before the test was conducted. The mice were then allowed for 30 min habituation to an open-topped, square, clear Plexiglas observation chamber (26×26×26 cm^3) with lines partitioning the bottom into quadrants before they were given antagonist. All drugs and test compounds were administered subcutaneously (s.c.). […] Withdrawal commenced within 3 min after antagonist administration. Escape jumps, paw tremors and wet dog shakes were quantified by counting their occurrences over 20 min for each mouse using five mice per drug. The data is given as the mean±SEM. One-way ANOVA followed by the post hoc Dunnett test were performed to assess significance using the Prism 6.0 software.

Swiss Webster mice [4] = test: Warm-water tail immersion assay, blockage of the antinociceptive effect of morphine; conditions: for Blockage of morphine-mediated antinociception: 10 mg/kg s.c. 5 min before morphine 10 mg/kg, tested 20 min after morphine; for AD50 (95% CL), opioid antagonist effect: dose-dependent study against morphine, s.c.
Method: as §4, §5
Each indole analogue of naltrexamine was tested for its ability to produce antinociception and/or to antagonize the antinociceptive effects of morphine in mice using the warm-water tail immersion assay described by Coderre and Rollman. The a water bath temperature was maintained at 56±0.1° C. The baseline latency (control) was determined before injecting the compounds into the mice. […] To test for agonism, the tail immersion was conducted 20 min (time that morphine effect starts to peak) after injecting the indole analogues of 6α/β-naltrexamine. To prevent tissue damage, a 10 s maximum cut off time was imposed. Antinociceptive response was calculated as the percentage maximum possible effect (% MPE), where % MPE=[(test−control)/(10−control)]×100. In the antagonism study, the 6α/β-naltrexamine derivatives were given 5 min before morphine. The tail immersion test was conducted 20 min after giving morphine. % MPE was calculated for each mouse using at least five mice per drug. AD50 values were calculated using the least-squares linear regression analysis followed by calculation of 95% confidence interval by Bliss method. A higher % MPE indicates a stronger antinociception effect by the ligand.

DOR [5] = molecular target: T1, DOR; conditions: read-out: Ki (nM) ± SEM δ; values obtained from previous experiments; cited from earlier work
MOR [6] = molecular target: MOR (Homo sapiens (Human), UniProt P35372); conditions: background statement; cited from earlier work
[7] = [3H]DPN, KOR CHO membranes, read-out: Ki (nM) ± SEM κ
[8] = [3H]DPN, DOR CHO membranes, read-out: Ki (nM) ± SEM δ
[9] = 1 mg/kg s.c., morphine-pelleted mice, counted over 20 min, mean±SEM
[10] = 50 mg/kg s.c., morphine-pelleted mice

T1 sequence (P41143 whole entry, looked up): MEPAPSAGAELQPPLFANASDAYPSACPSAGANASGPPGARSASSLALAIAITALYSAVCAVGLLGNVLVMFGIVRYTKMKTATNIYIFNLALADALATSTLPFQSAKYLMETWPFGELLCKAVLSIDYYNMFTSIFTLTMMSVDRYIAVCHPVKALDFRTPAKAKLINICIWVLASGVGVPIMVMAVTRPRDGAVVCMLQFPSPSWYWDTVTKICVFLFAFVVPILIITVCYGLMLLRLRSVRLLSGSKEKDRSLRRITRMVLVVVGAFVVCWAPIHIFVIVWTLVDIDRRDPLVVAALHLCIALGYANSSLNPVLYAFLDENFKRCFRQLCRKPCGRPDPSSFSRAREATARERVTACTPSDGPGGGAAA
Chain of MOR (Mus musculus, UniProt P42866) (P42866 whole entry, looked up): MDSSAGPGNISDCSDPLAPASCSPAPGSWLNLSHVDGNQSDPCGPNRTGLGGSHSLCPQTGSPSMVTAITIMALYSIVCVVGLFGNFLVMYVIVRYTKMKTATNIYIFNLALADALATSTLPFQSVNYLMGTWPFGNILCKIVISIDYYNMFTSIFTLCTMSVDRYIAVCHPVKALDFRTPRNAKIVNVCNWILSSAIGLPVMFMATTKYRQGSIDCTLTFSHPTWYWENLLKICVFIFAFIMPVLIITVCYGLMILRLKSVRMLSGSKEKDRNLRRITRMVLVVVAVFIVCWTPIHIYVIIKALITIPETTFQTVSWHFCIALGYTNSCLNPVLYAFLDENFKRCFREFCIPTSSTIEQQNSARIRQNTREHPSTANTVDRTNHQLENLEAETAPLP
Chain of MOR (Homo sapiens (Human), UniProt P35372) (P35372 whole entry): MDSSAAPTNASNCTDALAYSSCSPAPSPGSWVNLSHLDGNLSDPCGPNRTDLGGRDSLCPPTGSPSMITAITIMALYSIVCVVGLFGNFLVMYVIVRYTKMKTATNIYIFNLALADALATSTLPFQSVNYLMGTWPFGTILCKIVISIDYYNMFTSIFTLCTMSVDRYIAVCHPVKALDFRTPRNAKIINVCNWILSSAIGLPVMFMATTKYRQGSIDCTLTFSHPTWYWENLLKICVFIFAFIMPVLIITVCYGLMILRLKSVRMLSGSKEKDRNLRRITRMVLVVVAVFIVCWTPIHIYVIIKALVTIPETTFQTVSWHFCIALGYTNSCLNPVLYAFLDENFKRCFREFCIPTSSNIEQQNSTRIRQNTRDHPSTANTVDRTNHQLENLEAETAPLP

SMILES | Ki (KOR; [7]) [nM] | Ki (DOR [1]; [8]) [nM] | Antinociceptive effect (agonism) in warm-water immersion assay (Swiss Webster mice [2]) | Emax(% DAMGO) ± SEM (MOR [3]) [% DAMGO] | Blockage of morphine-mediated antinociception (Swiss Webster mice [4]) | AD50 (95% CL), opioid antagonist effect (Swiss Webster mice [4]) | further results
Cl.O=C(Cc1c[nH]c2ccccc12)N[C@@H]1CC[C@@]2(O)[C@H]3Cc4ccc(O)c5c4[C@@]2(CCN3CC2CC2)[C@H]1O5 [Compound 16, 17-Cyclopropylmethyl-3,14β-dihydroxy-4,5α-epoxy-6β-[2-(indol-3-yl)acetamido)morphinan] | 0.947 ± 0.114 | 37 ± 1.21 | partial opioid agonists | 50.17 ± 7.75 | – | – | –
O=C1CC[C@@]2(O)[C@H]3Cc4ccc(O)c5c4[C@@]2(CCN3CC2CC2)[C@H]1O5 [NTX, naltrexone, reference compound] | – | – | – | – | – | – | Escape jumps (morphine-pelleted mice; [9]): 39.0±14.2 times; Paw tremors (morphine-pelleted mice; [9]): 43.4±15.7; Wet-dog shakes (morphine-pelleted mice; [9]): 18.6±1.2 times; Diarrhea (morphine-pelleted mice): produced diarrhea
Cl.O=C(N[C@@H]1CC[C@@]2(O)[C@H]3Cc4ccc(O)c5c4[C@@]2(CCN3CC2CC2)[C@H]1O5)c1cc2ccccc2[nH]1 [Compound 10, 17-Cyclopropylmethyl-3,14β-dihydroxy-4,5α-epoxy-6β-(indole-2-carboxamido)morphinan] | – | – | opioid agonist | – | – | – | Ki (KOR): 0.178 ± 0.002 nM; Ki (DOR [1]): 1.54 ± 0.473 nM
Cl.O=C(N[C@@H]1CC[C@@]2(O)[C@H]3Cc4ccc(O)c5c4[C@@]2(CCN3CC2CC2)[C@H]1O5)c1cccc2cc[nH]c12 [Compound 15, 17-Cyclopropylmethyl-3,14β-dihydroxy-4,5α-epoxy-6β-(indole-7-carboxamido)morphinan] | – | – | partial opioid agonists | 32.0 ± 4.6 | effectively blocked morphine-mediated antinociception | – | Ki (KOR): 0.52 ± 0.094 nM; Ki (DOR [1]): 30.4 ± 9.49 nM
Cl.O=C(N[C@H]1CC[C@@]2(O)[C@H]3Cc4ccc(O)c5c4[C@@]2(CCN3CC2CC2)[C@H]1O5)c1cc2ccccc2cn1 [NAQ, 17-Cyclopropylmethyl-3,14β-Dihydroxy-4,5α-Epoxy-6α-(Isoquinoline-3-Carboxamido)morphinan] | – | – | – | – | – | – | Ki (DOR [5]): 162 ± 15 nM
Cl.O=C(CCCc1c[nH]c2ccccc12)N[C@@H]1CC[C@@]2(O)[C@H]3Cc4ccc(O)c5c4[C@@]2(CCN3CC2CC2)[C@H]1O5 [Compound 18, 17-Cyclopropylmethyl-3,14β-dihydroxy-4,5α-epoxy-6β-[4-(indol-3-yl)butanamido)morphinan] | 0.175 ± 0.037 | 25.3 ± 4.34 | – | 36.29 ± 4.11 | effectively blocked morphine-mediated antinociception | 9.64 (3.17-29.29) mg/kg | –
Cl.O=C(CCc1c[nH]c2ccccc12)N[C@@H]1CC[C@@]2(O)[C@H]3Cc4ccc(O)c5c4[C@@]2(CCN3CC2CC2)[C@H]1O5 [Compound 17, 17-Cyclopropylmethyl-3,14β-dihydroxy-4,5α-epoxy-60-[3-(indol-3-yl)propanamido)morphinan] | 0.387 ± 0.045 | 49 ± 4.72 | – | 40.43 ± 5.28 | effectively blocked morphine-mediated antinociception | 7.30 (3.38-15.74) mg/kg | –
Cl.O=C(N[C@H]1CC[C@@]2(O)[C@H]3Cc4ccc(O)c5c4[C@@]2(CCN3CC2CC2)[C@H]1O5)c1cccc2cc[nH]c12 [Compound 6, 17-Cyclopropylmethyl-3,14β-dihydroxy-4,5α-epoxy-6α-(indole-7-carboxamido)morphinan] | 1.69 ± 0.35 | 10.9 ± 2.94 | – | 20.95 ± 4.43 | effectively blocked morphine-mediated antinociception | 2.39 (0.46-12.47) mg/kg | Escape jumps compared with naltrexone 1 mg/kg (morphine-pelleted mice; 1 mg/kg s.c., morphine-pelleted mice): significantly less escape jumps than naltrexone; Diarrhea (morphine-pelleted mice): produced diarrhea; Paw tremors compared with naltrexone 1 mg/kg (morphine-pelleted mice; [10]): significantly less paw tremors than naltrexone; Wet-dog shakes compared with naltrexone 1 mg/kg (morphine-pelleted mice; [10]): significantly less wet-dog shakes than naltrexone; Escape jumps compared with naltrexone 1 mg/kg (morphine-pelleted mice; 50 mg/kg s.c., morphine-pelleted mice, not significantly different): more escape jumps; Withdrawal symptoms in placebo-pelleted mice (morphine-pelleted mice; 50 mg/kg s.c., placebo-pelleted mice): did not induce any significant withdrawal symptoms
Cl.O=C(N[C@H]1CC[C@@]2(O)[C@H]3Cc4ccc(O)c5c4[C@@]2(CCN3CC2CC2)[C@H]1O5)c1c[nH]c2ccccc12 [Compound 2, 17-Cyclopropylmethyl-3,14β-dihydroxy-4,5α-epoxy-6α-(indole-3-carboxamido)morphinan] | 0.984 ± 0.125 | 10.5 ± 2.89 | – | 35.4 ± 4.8 | – | – | –
COc1cccc2c1[C@]13CCN(CC4CC4)[C@H](C2)[C@]1(OC)CCC(=O)C3 [Cyprodime] | – | – | – | – | – | – | Selectivity DOR/MOR (MOR over DOR) (MOR [6]): ≈ 39 fold; Selectivity KOR/MOR (MOR [6]): ≈ 10
